Oligonucleotides are written 5' to 3', each unit as a sugar letter and its base; * is a phosphorothioate linkage, no mark a phosphodiester; rarer units and linkages stand in square brackets, end groups in braces. Plain capitals give the bases only. d = 2'-deoxy (DNA)
Key:
[1] = system: outer membrane of Salmonella; assay: Outer membrane permeabilization (NPN fluorescence); assay type: cell-based, Salmonella enterica serovar Typhimurium strain SL1344; set-up: key to Outer-membrane permeation: -: Effect strength is represented by additional (+) signs.; Effect strength is represented by additional (+) signs.; ++: Effect strength is represented by additional (+) signs.; +++: Effect strength is represented by additional (+) signs; conditions: for Outer-membrane permeation: summary grade, ASO conjugated to the carrier peptide; for Outer membrane permeabilization, NPN fluorescence (in words): test compounds 10 µM final, added at 14 min, NPN 10 µM, 5 mM HEPES, 5 mM glucose pH 7.2, CTAB and Polymyxin B positive controls
Protocol: The experiments were performed by modifying previously published protocols ([48]–[50]). Salmonella (WT SL1344, JVS-1574) were grown overnight in 4 ml MHB medium at 37 °C (with shaking at 220 rpm). Then the culture was diluted 1:100 and grown until OD 0.5 (∼2×10^8 cfu/mL). This culture was harvested and washed two times with 5mM HEPES and further diluted to OD 0.2 in 5 mM HEPES supplemented with 5 mM Glucose (pH 7.2). These cells were then incubated with N-phenylnaphthylamine (NPN) (Sigma, USA) at a final concentration of 10 µM. 190 µl of NPN treated cells were transferred into 96-well back plates with transparent bottom and fluorescence (excitation = 350 nm, emission = 420 nm) was recorded for 60 min (reading was performed every minute) using a Synergy H1 plate reader (Biotek). On the fourteenth minute, 10 µl of the test compounds (10 µM final concentration) was added into the wells. CTAB (Sigma, USA) 200 µM or Polymyxin B (Sigma, USA) 10 µg/ml (final concentration of 0.5 µg/ml) were used as positive controls, while water was used as negative control. The fluorescence of the wells were monitored using the same settings as above. The experiment was performed three times and Figure 10 is based on a single representative experiment.

[2] = system: acpP::gfp reporter transcript; assay: In vitro translation (PURExpress) and anti-GFP western blot; assay type: biochemical, Salmonella enterica; set-up: key to Inhibition of translation in vitro: -: Effect strength is represented by additional (+) signs.; Effect strength is represented by additional (+) signs.; ++: Effect strength is represented by additional (+) signs.; +++: Effect strength is represented by additional (+) signs; conditions: unconjugated ASO; for GFP Expression (%): RNA 100 nM, 2 h 37 °C, relative to water control; for Inhibition of translation in vitro: summary grade; for Inhibition of in vitro translation of acpP::gfp (in words): western blot of AcpP-GFP fusion protein
From the text: For the generation of target RNA::gfp fusion constructs, we used a previously established protocol ([31]) and the oligonucleotides JVO-19760/JVO-19761 (Supplementary Table 1) to amplify the genomic region spanning nucleotides –40 to + 51 relative to the translational start codon of acpP. The sense oligonucleotide was fused to a T7 promoter sequence for subsequent transcription of the final fusion construct in vitro. The antisense oligonucleotide contained a 30 nt overlapping region with gfp for subsequent fusion PCR with full length gfp (pXG-10; JVO-19762/JVO-19763) (Supplementary Table 1). The PCR products were purified with NucleoSpin Gel and PCR Clean-up (Macherey-Nagel) according to the manufacturer’s instructions and DNA concentration was quantified with a NanoDrop spectrophotometer (A260 nm).
PCR products were used for T7 RNA polymerase-driven transcription in vitro using the MEGAscript T7 kit (Ambion/Thermo Scientific), according to the manufacturer’s instructions and analogous to our previous publication ([31]). The concentration of the RNA solution was quantified with Qubit (Fisher Scientific) and the expected product size and RNA integrity was verified on a 6% PAA, 7 M urea gel.
For in vitro translation of target RNA::gfp fusion constructs, the PURExpress® In Vitro Protein Synthesis Kit (New England Biolabs, E6800L) was used as described previously ([31]). Briefly, the final volume of each in vitro translation reaction was set to 10 µL. 1µL of different concentrations of ASOs ranging from 10 µM to 0.625 µM were added to 1 µL of in vitro transcribed heat-denatured RNA (1µM) to adjust the final RNA concentration to 100 nM. The mixtures were pre-incubated at 37 °C for 5 min. Then 4 µL of Solution A and 3 µL of Solution B were added to the pre-annealed mixtures. After 2 h at 37 °C, protein samples were denatured in 1x reducing protein loading buffer (62.6 mM Tris–HCl pH 6.8, 2 % SDS, 0.1 mg/mL bromphenol blue, 15.4 mg/mL DTT, 10 % glycerol) at 95 °C for 5 min.
To visualise in vitro translated proteins, samples were separated on SDS-PAA (12 % PAA) gels, with subsequent semi-dry western blot transfer on polyvinylidene fluoride (PVDF) membranes. Membranes were blocked with 10% skim milk (in 1x TBS-T) for 1 h and probed with anti-GFP antibody (1:1,000; Sigma-Aldrich) in 5 % skim milk (in 1x TBS-T) overnight at 4 °C. After washing in 1x TBS-T and incubation with an HRP-conjugated secondary antibody (1:5,000; ThermoScientific) in 1x TBS-T, the membrane was incubated with developing solution kit (Amersham™ ECL Select™ Western Blotting Detection Reagent) and protein levels were detected using an ImageQuant LAS 500 (GE Healthcare Life Sciences). Images were processed and band intensities quantified using ImageJ. Protein bands were normalized to the water control.

Substance	Outer-membrane permeation [1]	GFP Expression (%) ([2]; acpP-RNA : ASO 1 : 0.625)	GFP Expression (%) ([2]; acpP-RNA : ASO 1 : 1.25)	GFP Expression (%) ([2]; acpP-RNA : ASO 1 : 2.5)	GFP Expression (%) ([2]; acpP-RNA : ASO 1 : 5)	GFP Expression (%) ([2]; acpP-RNA : ASO 1 : 10)	Inhibition of translation in vitro [2]	Inhibition of in vitro translation of acpP::gfp (in words) [2]	Outer membrane permeabilization, NPN fluorescence (in words) [1]
DNA-PTO: 10mer phosphorothioate-modified DNA antisense oligomer, sequence CTCATACTCT, targeting acpP (antisense dC*dT*dC*dA*dT*dA*dC*dT*dC*dT)	-	110.7	106.7	104.6	96.5	96.3	-		
LNA: 10mer 2'-4'-locked RNA antisense oligomer, sequence CTCATACTCT, targeting acpP (all LNA, backbone and methylation of C not given here)	-	97.8	38.1	8.0	6.5	4.5		substantially blocking in vitro translation of acpP::gfp at 1.25x molar excess	
PMO: 10mer phosphorodiamidate morpholino antisense oligomer, sequence CTCATACTCT, targeting acpP (all phosphorodiamidate morpholino (PMO))	++	117.0	104.6	92.7	60.4	28.3			this ability is retained
PNA: 10mer peptide nucleic acid antisense oligomer, sequence CTCATACTCT, targeting acpP (all peptide nucleic acid (PNA))	++	106.8	85.9	13.0	5.7	5.5		substantially blocking in vitro translation of acpP::gfp at 1.25x molar excess	this ability is retained
RNA-F: 10mer 2'-fluorinated RNA antisense oligomer, sequence CTCATACTCT, targeting acpP (all 2'-fluoro, backbone and T or U not given here)	-	96.1	97.5	85.0	69.5	58.3			
RNA-MOE: 10mer 2'-methoxyethylated RNA antisense oligomer, sequence CTCATACTCT, targeting acpP (all 2'-MOE, backbone and methylation of C not given here)	-	88.5		5.1	3.3	3.4		substantially blocking in vitro translation of acpP::gfp at 1.25x molar excess	
RNA-OMe: 10mer 2'-methylated RNA antisense oligomer, sequence CTCATACTCT, targeting acpP (all 2'-O-methyl, backbone and T or U not given here)	-	91.2	100.6	90.2	89.0	83.7	+		

Reference: publication doi:10.1101/2023.07.11.548539v1, “A side-by-side comparison of peptide-delivered antisense antibiotics employing different nucleotide mimics” (bioRxiv, 2023)
